From ChEMBL document CHEMBL6092150, “Exploration of isatin-based inhibitors of SARS-CoV-2 Nsp15 endoribonuclease” (Eur J Med Chem, 2024) come the findings set out here.

The structures appear in SMILES notation.

In assay [1] the test system is SARS-CoV-2. The experiment in a line: Antiviral activity against SARS-CoV-2 Omicron BA.7 variant infected in human A549 cells transfected with human ACE2 and TMPRSS2 assessed as fold reduction in viral RNA load at 80 uM incubated for 3 days by qRT-PCR analysis relative to control. The following applies: time 3 day. It is filed as functional, Severe acute respiratory syndrome coronavirus 2. (In general: Real-time PCR tracks product formation cycle by cycle.)

Assay [2] has as its system SARS-CoV-2. Nature of the assay: Antiviral activity against SARS-CoV-2 Omicron BA.7 variant infected in human A549 cells transfected with human ACE2 and TMPRSS2 assessed as fold reduction in viral RNA load incubated for 3 days by qRT-PCR analysis. It is filed as functional. The following applies: Severe acute respiratory syndrome coronavirus 2, Omicron BA.7, A549, 72 h; time 3 day.

The subject of assay [3] is SARS-CoV-2. Nature of the assay: Antiviral activity against SARS-CoV-2 Omicron BA.7 variant infected in human A549 cells transfected with human ACE2 and TMPRSS2 assessed as fold reduction in viral RNA load at 40 uM incubated for 3 days by qRT-PCR analysis relative to control. The following applies: time 3 day. It is filed as functional, Severe acute respiratory syndrome coronavirus 2.

Consider `N#CC(C#N)=C1C(=O)Nc2ccc([N+](=O)[O-])cc21`, for which the “fold change (FC)” value in the assay on SARS-CoV-2 [1] is recorded as 425. In addition, in the assay with SARS-CoV-2 [2], the EC90 (as a rule, the point of the concentration-response curve where the effect stands at 90%) came to 54 µM.
For `N#CC(C#N)=C1C(=O)Nc2c(Br)cc(Br)cc21` the same measures were 68000 and 39 µM.
As for `N#C[C@@]1(c2ccc3c(N)ncnn23)O[C@H](CO)[C@@H](O)[C@H]1O` [GS-441524], the “fold change (FC)” value in the assay with SARS-CoV-2 [3] is reported as 72000. Besides, the EC90 in the assay on SARS-CoV-2 [2] turned out to be 2 µM.
